Experimental data from PubChem BioAssay (NCI).
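The compound was tested at five concentrations on cells cultured in 96-well plates, with a 48-hour exposure period. Here, GI50 denotes the concentration required for 50% inhibition of growth. TGI is the concentration that stops growth completely.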

Key:
Assay in all cases: DTP human tumour cell line panel, 48 h
OVCAR-4 ovarian = tested on: OVCAR-4 ovarian
A498 renal = tested on: A498 renal
NCI-H460 lung = tested on: NCI-H460 lung
786-0 renal = tested on: 786-0 renal
MOLT-4 leukemia = tested on: MOLT-4 leukemia
PC-3 prostate = tested on: PC-3 prostate
MCF7 breast = tested on: MCF7 breast
MALME-3M melanoma = tested on: MALME-3M melanoma
LOX IMVI melanoma = tested on: LOX IMVI melanoma
COLO 205 colon = tested on: COLO 205 colon
HS 578T breast = tested on: HS 578T breast
NCI/ADR-RES ovarian = tested on: NCI/ADR-RES ovarian
UACC-62 melanoma = tested on: UACC-62 melanoma
RXF 393 renal = tested on: RXF 393 renal
NCI-H23 lung = tested on: NCI-H23 lung
EKVX NSCLC = tested on: EKVX NSCLC
NCI-H226 lung = tested on: NCI-H226 lung
OVCAR-8 ovarian = tested on: OVCAR-8 ovarian
HOP-62 NSCLC = tested on: HOP-62 NSCLC
SF-539 CNS = tested on: SF-539 CNS
HT29 colon = tested on: HT29 colon
UO-31 renal = tested on: UO-31 renal
M14 melanoma = tested on: M14 melanoma
SK-MEL-5 melanoma = tested on: SK-MEL-5 melanoma
IGROV1 ovarian = tested on: IGROV1 ovarian
HCT-116 colon = tested on: HCT-116 colon
SNB-75 CNS = tested on: SNB-75 CNS
SF-268 CNS = tested on: SF-268 CNS
SK-MEL-2 melanoma = tested on: SK-MEL-2 melanoma
OVCAR-5 ovarian = tested on: OVCAR-5 ovarian
SK-OV-3 ovarian = tested on: SK-OV-3 ovarian
SN12C renal = tested on: SN12C renal
MDA-MB-435 = tested on: MDA-MB-435
HCC-2998 colon = tested on: HCC-2998 colon
CAKI-1 renal = tested on: CAKI-1 renal
HL-60(TB) leukemia = tested on: HL-60(TB) leukemia
NCI-H522 lung = tested on: NCI-H522 lung
HCT-15 colon = tested on: HCT-15 colon
DU-145 prostate = tested on: DU-145 prostate
ACHN renal = tested on: ACHN renal
A549 NSCLC = tested on: A549 NSCLC
SNB-19 CNS = tested on: SNB-19 CNS
SW-620 colon = tested on: SW-620 colon
MDA-MB-231 breast = tested on: MDA-MB-231 breast
TK-10 renal = tested on: TK-10 renal
SK-MEL-28 melanoma = tested on: SK-MEL-28 melanoma
U251 CNS = tested on: U251 CNS
T-47D breast = tested on: T-47D breast
OVCAR-3 ovarian = tested on: OVCAR-3 ovarian
SF-295 CNS = tested on: SF-295 CNS
KM12 colon = tested on: KM12 colon
K-562 leukemia = tested on: K-562 leukemia
UACC-257 melanoma = tested on: UACC-257 melanoma
BT-549 breast = tested on: BT-549 breast

CCN(CC)Cc1cc(Nc2c3ccc(Cl)cc3nc3c(C)cccc23)ccc1O
GI50 (OVCAR-4 ovarian): 1530 nM | TGI (OVCAR-4 ovarian): 2970 nM | GI50 (A498 renal): 1050 nM | TGI (A498 renal): 3 µM | GI50 (NCI-H460 lung): 1160 nM | TGI (NCI-H460 lung): 2700 nM | GI50 (786-0 renal): 1370 nM | TGI (786-0 renal): 2670 nM | GI50 (MOLT-4 leukemia): 855 nM | TGI (MOLT-4 leukemia): 10.9 µM | GI50 (PC-3 prostate): 1550 nM | TGI (PC-3 prostate): 3.1 µM | GI50 (MCF7 breast): 1000 nM | TGI (MCF7 breast): 2320 nM | GI50 (MALME-3M melanoma): 1650 nM | TGI (MALME-3M melanoma): 3.13 µM | GI50 (LOX IMVI melanoma): 1290 nM | TGI (LOX IMVI melanoma): 2610 nM | GI50 (COLO 205 colon): 1230 nM | TGI (COLO 205 colon): 2600 nM | GI50 (HS 578T breast): 1920 nM | TGI (HS 578T breast): 4.57 µM | GI50 (NCI/ADR-RES ovarian): 1080 nM | TGI (NCI/ADR-RES ovarian): 3.02 µM | GI50 (UACC-62 melanoma): 1960 nM | TGI (UACC-62 melanoma): 3.64 µM | GI50 (RXF 393 renal): 1300 nM | TGI (RXF 393 renal): 2630 nM | GI50 (NCI-H23 lung): 1650 nM | TGI (NCI-H23 lung): 3.22 µM | GI50 (EKVX NSCLC): 1860 nM | TGI (EKVX NSCLC): 3.98 µM | GI50 (NCI-H226 lung): 1710 nM | TGI (NCI-H226 lung): 3.51 µM | GI50 (OVCAR-8 ovarian): 1340 nM | TGI (OVCAR-8 ovarian): 3.45 µM | GI50 (HOP-62 NSCLC): 1650 nM | TGI (HOP-62 NSCLC): 3.26 µM | GI50 (SF-539 CNS): 1730 nM | TGI (SF-539 CNS): 3.12 µM | GI50 (HT29 colon): 888 nM | TGI (HT29 colon): 2420 nM | GI50 (UO-31 renal): 1060 nM | TGI (UO-31 renal): 2270 nM | GI50 (M14 melanoma): 1690 nM | TGI (M14 melanoma): 3.11 µM | GI50 (SK-MEL-5 melanoma): 1760 nM | TGI (SK-MEL-5 melanoma): 3.15 µM | GI50 (IGROV1 ovarian): 560 nM | TGI (IGROV1 ovarian): 1780 nM | GI50 (HCT-116 colon): 982 nM | TGI (HCT-116 colon): 2210 nM | GI50 (SNB-75 CNS): 1500 nM | TGI (SNB-75 CNS): 2840 nM | GI50 (SF-268 CNS): 1530 nM | TGI (SF-268 CNS): 3.09 µM | GI50 (SK-MEL-2 melanoma): 1940 nM | TGI (SK-MEL-2 melanoma): 3.73 µM | GI50 (OVCAR-5 ovarian): 2100 nM | TGI (OVCAR-5 ovarian): 4.86 µM | GI50 (SK-OV-3 ovarian): 1780 nM | TGI (SK-OV-3 ovarian): 3.33 µM | GI50 (SN12C renal): 1360 nM | TGI (SN12C renal): 2920 nM | GI50 (MDA-MB-435): 1750 nM | TGI (MDA-MB-435): 3.14 µM | GI50 (HCC-2998 colon): 1200 nM | TGI (HCC-2998 colon): 2470 nM | GI50 (CAKI-1 renal): 1530 nM | TGI (CAKI-1 renal): 2920 nM | GI50 (HL-60(TB) leukemia): 2420 nM | TGI (HL-60(TB) leukemia): 5.24 µM | GI50 (NCI-H522 lung): 585 nM | TGI (NCI-H522 lung): 1920 nM | GI50 (HCT-15 colon): 1150 nM | TGI (HCT-15 colon): 2870 nM | GI50 (DU-145 prostate): 2300 nM | TGI (DU-145 prostate): 6.99 µM | GI50 (ACHN renal): 1040 nM | TGI (ACHN renal): 2240 nM | GI50 (A549 NSCLC): 1640 nM | TGI (A549 NSCLC): 4.64 µM | GI50 (SNB-19 CNS): 1450 nM | TGI (SNB-19 CNS): 3.29 µM | GI50 (SW-620 colon): 1060 nM | TGI (SW-620 colon): 2530 nM | GI50 (MDA-MB-231 breast): 1830 nM | TGI (MDA-MB-231 breast): 3.81 µM | GI50 (TK-10 renal): 2690 nM | TGI (TK-10 renal): 5.59 µM | GI50 (SK-MEL-28 melanoma): 1780 nM | TGI (SK-MEL-28 melanoma): 3.22 µM | GI50 (U251 CNS): 1460 nM | TGI (U251 CNS): 2840 nM | GI50 (T-47D breast): 2090 nM | TGI (T-47D breast): 4.08 µM | GI50 (OVCAR-3 ovarian): 1970 nM | TGI (OVCAR-3 ovarian): 3.73 µM | GI50 (SF-295 CNS): 1780 nM | TGI (SF-295 CNS): 3.34 µM | GI50 (KM12 colon): 1590 nM | TGI (KM12 colon): 3.46 µM | GI50 (K-562 leukemia): 1160 nM | TGI (K-562 leukemia): 5.48 µM | GI50 (UACC-257 melanoma): 1990 nM | TGI (UACC-257 melanoma): 3.62 µM | GI50 (BT-549 breast): 1920 nM | TGI (BT-549 breast): 3.51 µM
